Source: patent publication US7754228B2, “Cytotoxic T-cell epitopes from Chlamydia” (Novartis Vaccines and Diagnostics, Srl, priority 2002, dated 2010)
“Also recorded” adds a separate entry of the source. Read-outs that look alike come from different tables or passages of the source.

Experiments:
[1] = tested on: HLA A2; assay type: binding, human; details: for Mean 1 / Mean 2 / binding to HLA A2 (in words): RMA-S/A2 cells; for Mean 1: peptide and only anti-mouse secondary antibody; for Mean 1 / Mean 2: FACS mean; for Mean 2: peptide, anti-A2 Mab BB7.2 and secondary antibody; for binding to HLA A2 (in words): in vitro binding assay
[2] = tested on: CD8^+ cells from immunised transgenic mice; assay: IFN-γ/CD8+ ELISpot assay after DNA immunisation of HLA-A2 transgenic mice; assay type: cell-based; details: for Mean IFN-γ^+ve per 10^6 CD8^+ve cells: after subtraction of HepB negative controls; for number of IFN-γ secreting CD8^+ (in words): spleen cells of DNA immunised transgenic mice
Description: Full-length C.pneumoniae and C.trachomatis genes encoding the polypeptides which contain CTL epitopes were amplified by PCR using the primers in Table 4 and cloned into plasmid expression vector pCMVKASF2-120, from which the gp120 sequence had been previously excised by treatment with NheI and SalI restriction enzymes. The chlamydial sequences were thus downstream of the tPA signal sequence.
The plasmids were used for DNA immunisation of transgenic mice expressing the human HLA-A2 gene which express a chimeric class I molecule composed of the α1 and α2 domains of HLA-A2.1 and the α3 transmembrane and cytoplasmic domains of H-2K^b.
Mice were immunised at days 0, 21 and 35 by intramuscular injection of 50μg endotoxin-free recombinant plasmid DNA. One week after the third immunisation, the animals were sacrificed, spleens were removed and CD8+ cells were purified by means of CD8α(Ly-2) Microbeads and LS Separation Columns following the technical procedures described by Miltenyi Biotec™. These CD8^+ cells were tested by Elispot assay to detect cells which secrete IFN-γ in response to given peptides. The Elispot procedure was as follows: • 1. 96-well nitrocellulose plates are coated with 5 μg/ml anti-mouse IFN-γ in 100 μl carbonate buffer, pH 9.2. Cover plate with lid and incubate overnight (o.n.) at 4° C. • 2. Discard coating antibody. Rinse plates 3 times with PBS (200 μl per rinse). Shake excess liquid from plate and pat bottom of plate with dry absorbent paper. • 3. Add 200 μl blocking solution (PBS-BSA 1%) to each well to saturate remaining binding sites and incubate 2 hours at 37° C. (or o.n. at 4° C.). • 4. Discard blocking solution, wash plate 3 times with PBS (200 μl per rinse). Shake excess liquid from plate and pat bottom of plate with dry absorbent paper. • 5. Add 100 μl complete medium and incubate 10 minutes at room temperature. Discard liquid and pat bottom of plate with dry absorbent paper. • 6. Add cells (5×10^4 CD8^+ from immunised transgenic mice and 2×10^5 irradiated spleen cells from non-immunised transgenic mice) with complete medium supplemented with the tested peptide (5, 10 or 20 μg/ml) and IL-2 (10 units/ml). • 7. Incubate 20-24 hours in a humidified 37° C., 5% CO2 incubator. • 8. Take off medium, add 200 μl per wash of ice-cold distilled water and incubate on ice for 10 minutes. Then wash ten times in wash buffer (PBS-Tween 0.05%), 2001 per wash. Shake excess liquid from plate and pat bottom of plate with dry absorbent paper. • 9. To detect IFN-γ spots, add 1 μg/ml biotinylated anti mouse IFN-γ in 100 μl in Elispot dilution buffer (PBS-BSA 1%) and incubate 2 hours at 37° C. • 10. Wash plate 3 times with wash buffer (PBS-Tween 0.05%), 200 μl per wash and 3 times with PBS without Tween (200 μl). Shake excess liquid from plate and pat bottom of plate with dry absorbent paper. • 11. Add 100 μl 1:2000 dilution of alkaline phosphatase-coupled avidin in PBS-BSA 1% (Sigma). Incubate 1 hour at 37° C. • 12. Wash plate 3 times with wash buffer (PBS-Tween 0.05%), 2001il per wash and 3 times with PBS without Tween (200 μl). Shake excess liquid from plate and pat bottom of plate with dry absorbent paper. • 13. Spots of […] secreting cells are visualised by adding 50 μl of the ready-to-use substrate BCIP/NBT (Sigma) dissolved in water. The reaction is stopped after 45 minutes at 37° C. by several washes with distilled water.
Values are shown after subtraction of HepB negative controls.

Sequence	High - B [1]	Δ Mean [1]	Mean 1 ([1]; 10 μM peptide)	Mean 2 ([1]; 10 μM peptide)	binding to HLA A2 (in words) [1]	Mean IFN-γ^+ve per 10^6 CD8^+ve cells ([2]; peptide dose 5 μg/ml)	Mean IFN-γ^+ve per 10^6 CD8^+ve cells ([2]; peptide dose 10 μg/ml)	Mean IFN-γ^+ve per 10^6 CD8^+ve cells ([2]; peptide dose 20 μg/ml)	number of IFN-γ secreting CD8^+ (in words) [2]	ΔMean at high concentrations of peptide (in words) ([1]; high peptide concentrations, non-homogeneous fluorescent signal, most likely non-specific effects)	Mean 1 ([1]; 100 μM peptide)	Mean 2 ([1]; 100 μM peptide)
YLLEEIYTV [CH6]	130	376	198	574	bind to HLA A2	106.8 per 10^6 CD8^+ve cells	486.8 per 10^6 CD8^+ve cells	266.6 per 10^6 CD8^+ve cells	well above background levels	–	–	–
GLTEEIDYV [CH10]	139	385	202	587	bind to HLA A2	226 per 10^6 CD8^+ve cells	233.3 per 10^6 CD8^+ve cells	200 per 10^6 CD8^+ve cells	well above background levels	–	–	–
YMDNNLFYV [CH7]	102	348	203	551	bind to HLA A2	366 per 10^6 CD8^+ve cells	400 per 10^6 CD8^+ve cells	433 per 10^6 CD8^+ve cells	well above background levels	Very low ΔMean values	–	–
YVFDRILKV [CH13]	119	365	–	–	bind to HLA A2	466.8 per 10^6 CD8^+ve cells	700 per 10^6 CD8^+ve cells	540 per 10^6 CD8^+ve cells	well above background levels	–	217	582
SITVFRWLV [CH58]	−15	145	155	300	negative results	1046 per 10^6 CD8^+ve cells	980 per 10^6 CD8^+ve cells	986 per 10^6 CD8^+ve cells	well above background levels; also recorded: strongly positive	–	–	–
